Common to all, as to type: in vivo
Test [1] concerns Aphis gossypii. Nature of the test: Aphis gossypii test, Example E (sprayed to runoff, ammonium salt boosting). As to the method: (§1) Solvent: 7 parts by weight dimethylformamide
(§2) Emulsifier: 2 parts by weight alkylaryl polyglycol ether
An appropriate preparation of active ingredient is prepared by mixing 1 part by weight of active ingredient with the stated amounts of solvent and emulsifier and diluting the concentrate with emulsifier-containing water to the desired concentration. For the application with ammonium salts or phosphonium salts, these salts are added in a concentration of 1000 ppm to the spray liquor.
(§3) Cotton plants (Gossypium hirsutum) heavily infested by the cotton aphid (Aphis gossypii) are sprayed to runoff with the preparation of active ingredient at the desired concentration.
(§4) After the desired time the destruction in % is ascertained. 100% means that all of the aphids have been killed; 0% means than no aphids were killed.

The test system of test [2] is Aphis gossypii. Nature of the test: Aphis gossypii test, Example G (sprayed to runoff, ammonium salt plus penetrant). How it is done:
as §1, §2
An appropriate preparation of active ingredient is prepared by mixing 1 part by weight of active ingredient with the stated amounts of solvent and emulsifier and diluting the concentrate with emulsifier-containing water to the desired concentration. For the application with ammonium salts or phosphonium salts and penetrants (rapeseed oil methyl esters 500 EW), they are each added in a concentration of 1000 ppm a.i. to the spray liquor.
as §3, §4

Another test concerns Myzus persicae. Nature of the test: Myzus persicae test, Example F (sprayed to runoff, ammonium salt plus penetrant). How it is done:
as §1, §2
An appropriate preparation of active ingredient is prepared by mixing 1 part by weight of active ingredient with the stated amounts of solvent and emulsifier and diluting the concentrate with water to the desired concentration. For the application with ammonium salts or phosphonium salts and penetrant (rapeseed oil methyl ester 500 EW), they are each added in a concentration of 1000 ppm to the spray liquor.
After the desired time the destruction in % is ascertained. 100% means that all of the animals have been killed; 0% means that no animals have been killed.

[3] abbreviates: 0.8 ppm active ingredient, +AS (1000 ppm).
The mark [4] stands for this setting: 0.8 ppm active ingredient, no additive.
[5] abbreviates: 4 ppm active ingredient, +AS (1000 ppm).
Setting [6] is: 4 ppm active ingredient, no additive.
Where [7] appears, read: 4 ppm active ingredient, +RME (1000 ppm).
Setting [8] is: 4 ppm active ingredient, +RME +AS (each 1000 ppm).
Setting [9] is: 100 ppm active ingredient, +AS (1000 ppm).
The mark [10] stands for this setting: 100 ppm active ingredient, +RME (1000 ppm).
Setting [11] is: 100 ppm active ingredient, +RME +AS (each 1000 ppm).
The mark [12] stands for this setting: 100 ppm active ingredient, no additive.
[13] abbreviates: 20 ppm active ingredient, +AS (1000 ppm).
Where [14] appears, read: 20 ppm active ingredient, no additive.
Setting [15] is: 20 ppm active ingredient, +RME (1000 ppm).
[16] abbreviates: 20 ppm active ingredient, +RME +AS (each 1000 ppm).
The mark [17] stands for this setting: 0.8 ppm active ingredient, +RME (1000 ppm).
The mark [18] stands for this setting: 0.8 ppm active ingredient, +RME +AS (each 1000 ppm).

SMILES strings stand for the structures.

For `COCC1CCC2(CC1)NC(=O)C(c1c(C)cc(C)cc1C)=C2O` (centres unmarked) [Example I-1-a-14], the “Degree of destruction/% after 6 days” value in the test on Aphis gossypii [1] (setting [3]) worked out at 40%; in the test on Aphis gossypii [1] (setting [4]) it was 25%; with Aphis gossypii [1] (setting [5]) it was 90%; in the test on Aphis gossypii [1] (setting [6]), 55%.
For the compound `Cc1ccccc1-c1c(O)c(C)c(-c2ccccn2)oc1=O` [Example I-4-a-2], the “Degree of destruction/% after 6 days” value is 60% in the test with Aphis gossypii [1] (setting [5]); 50% in the test on Aphis gossypii [1] (setting [6]); 60% in the test with Aphis gossypii [2] (setting [5]); 0% with Aphis gossypii [2] (setting [7]); 65% in the test on Aphis gossypii [2] (setting [8]); 5% in the test with Aphis gossypii [2] (setting [6]).
In the case of `COCC1CCC2(CC1)NC(=O)C(c1cc(C)c(Cl)cc1C)=C2O` (centres unmarked) [Example I-1-a-18], the “Degree of destruction/% after 6 days” value with Myzus persicae (setting [5]) is 0%; in the test with Myzus persicae (setting [7]) it was 35%; in the test on Myzus persicae (setting [8]), 55%; in the test with Myzus persicae (setting [6]), 0%.
Take `Cc1cc(C)c(C2C(=O)N3CCOCCN3C2=O)c(C)c1-c1ccc(Cl)cc1` [Example I-8-a-4]: the “Degree of destruction/% after 6 days” value with Aphis gossypii [2] (90 ppm active ingredient, +AS (1000 ppm)) turned out to be 35%; in the test on Aphis gossypii [2] (90 ppm active ingredient, +RME (1000 ppm)), 30%; with Aphis gossypii [2] (90 ppm active ingredient, +RME +AS (each 1000 ppm)) it was 75%; with Aphis gossypii [2] (90 ppm active ingredient, no additive), 30%.
As to `Cc1ccc(-c2ccc(Cl)cc2)cc1C1=C(O)C(C)(C)C(C)(C)NC1=O` [Example I-9-a-1], the “Degree of destruction/% after 6 days” value is recorded as 0% with Myzus persicae (setting [9]), 5% with Myzus persicae (setting [10]), 50% in the test with Myzus persicae (setting [11]) and 15% in the test on Myzus persicae (setting [12]).
Turning to `CO[C@@H]1CCC[C@]2(C1)NC(=O)C(c1c(C)cc(C)cc1C)=C2O` [Example I-1-a-6], the “Degree of destruction/% after 6 days” value amounted to 30% in the test with Aphis gossypii [1] (setting [3]); 15% with Aphis gossypii [1] (setting [4]); 55% with Aphis gossypii [1] (setting [5]); 25% with Aphis gossypii [1] (setting [6]); 55% with Aphis gossypii [2] (setting [5]); 50% with Aphis gossypii [2] (setting [7]). Further, the “Degree of destruction/% after 6 days” value turned out to be 80% in the test with Aphis gossypii [2] (setting [8]) and 25% with Aphis gossypii [2] (setting [6]).
`COCC1CCC2(CC1)NC(=O)C(c1c(C)cc(Cl)cc1Cl)=C2O` (centres unmarked) [Example I-1-a-16]: the “Degree of destruction/% after 6 days” value turned out to be 75% in the test on Aphis gossypii [1] (setting [5]); 40% in the test on Aphis gossypii [1] (setting [6]); 85% in the test on Aphis gossypii [1] (setting [13]); 75% with Aphis gossypii [1] (setting [14]); 85% with Aphis gossypii [2] (setting [13]); 95% in the test on Aphis gossypii [2] (setting [15]). Further, the “Degree of destruction/% after 6 days” value is listed as 99% in the test with Aphis gossypii [2] (setting [16]) and 75% with Aphis gossypii [2] (setting [14]).
As to `COCC1CCC2(CC1)NC(=O)C(c1c(C)cc(Cl)cc1C)=C2O` (centres unmarked) [Example I-1-a-15], the “Degree of destruction/% after 6 days” value in the test on Myzus persicae (setting [3]) stood at 0%; in the test on Myzus persicae (setting [17]) it was 50%; with Myzus persicae (setting [18]) it was 80%; in the test on Myzus persicae (setting [4]), 15%; with Aphis gossypii [1] (setting [5]) it was 75%; in the test with Aphis gossypii [1] (setting [6]) it was 40%. The results for the “Degree of destruction/% after 6 days” value in the test on Aphis gossypii [1] (setting [13]) and in the test with Aphis gossypii [1] (setting [14]) were 95% and 80%, respectively.
`COC1CCC2(CC1)NC(=O)C(c1c(C)cc(C)c(C)c1C)=C2O` (centres unmarked) [Example I-1-a-9]: the “Degree of destruction/% after 6 days” value with Myzus persicae (setting [3]) was found to be 5%; with Myzus persicae (setting [17]), 35%; in the test with Myzus persicae (setting [18]) it was 75%; in the test on Myzus persicae (setting [4]), 0%.
In the case of `O=C1C(c2cc(-c3ccc(Cl)cc3)ccc2Cl)C(=O)N2CCOCCN12` [Example I-8-a-2], the “Degree of destruction/% after 6 days” value in the test on Myzus persicae (setting [9]) was 15%; in the test with Myzus persicae (setting [10]), 15%; with Myzus persicae (setting [11]) it was 55%; with Myzus persicae (setting [12]), 0%.
As to `CO[C@H]1CC[C@]2(CC1)NC(=O)C(c1cc(C)ccc1C)=C2O` [Example I-1-a-13], the “Degree of destruction/% after 6 days” value with Myzus persicae (setting [3]) was 0%; with Myzus persicae (setting [17]) it was 0%; with Myzus persicae (setting [18]) it was 30%; in the test with Myzus persicae (setting [4]), 0%; with Myzus persicae (setting [5]), 0%; in the test with Myzus persicae (setting [7]), 65%. Besides, the “Degree of destruction/% after 6 days” value was found to be 75% in the test with Myzus persicae (setting [8]) and 0% with Myzus persicae (setting [6]).
For the compound `Cc1ccc(-c2ccc(Cl)cc2)c(C)c1C1C(=O)N2CCOCCN2C1=O` [Example I-8-a-3], the “Degree of destruction/% after 6 days” value in the test on Aphis gossypii [2] (setting [13]) amounted to 50%; in the test with Aphis gossypii [2] (setting [15]) it was 50%; in the test on Aphis gossypii [2] (setting [16]) it was 90%; with Aphis gossypii [2] (setting [14]) it was 15%.
As for `Cc1cc(C)c(C2=C(O)C3(CCCCC3)CC2=O)c(C)c1` [Example I-6-a-1], the “Degree of destruction/% after 6 days” value in the test with Aphis gossypii [2] (setting [9]) came out at 40%; in the test with Aphis gossypii [2] (setting [10]) it was 60%; with Aphis gossypii [2] (setting [11]), 80%; in the test with Aphis gossypii [2] (setting [12]), 40%.
As for `CCOC(=O)OC1=C(c2c(C)cc(C)cc2C)C(=O)NC12CCC(COC)CC2` (centres unmarked) [Example I-1-c-2], the “Degree of destruction/% after 6 days” value in the test on Aphis gossypii [2] (setting [13]) is reported as 85%; in the test with Aphis gossypii [2] (setting [15]) it was 90%; in the test on Aphis gossypii [2] (setting [16]), 99%; in the test with Aphis gossypii [2] (setting [14]), 85%.
In the case of `O=C1C(c2cc(-c3ccc(Cl)cc3)ccc2Cl)C(=O)N2CCCCN12` [Example I-8-a-1], the “Degree of destruction/% after 6 days” value is 30% in the test with Myzus persicae (setting [9]); 30% in the test on Myzus persicae (setting [10]); 45% with Myzus persicae (setting [11]); 15% with Myzus persicae (setting [12]); 15% in the test with Aphis gossypii [2] (setting [9]); 15% in the test with Aphis gossypii [2] (setting [10]). In addition, the “Degree of destruction/% after 6 days” value came out at 40% in the test on Aphis gossypii [2] (setting [11]) and 0% in the test on Aphis gossypii [2] (setting [12]).
In the case of `Cc1ccc(-c2ccc(Cl)cc2)cc1C1=C(O)C2(C)CCCCC2OC1=O` (centres unmarked) [Example I-10-a-2], the “Degree of destruction/% after 6 days” value in the test with Myzus persicae (setting [13]) is reported as 10%; in the test on Myzus persicae (setting [15]) it was 0%; in the test on Myzus persicae (setting [16]), 65%; in the test with Myzus persicae (setting [14]) it was 5%; in the test on Aphis gossypii [1] (setting [5]), 50%; in the test with Aphis gossypii [1] (setting [6]), 0%. In addition, the “Degree of destruction/% after 6 days” value with Aphis gossypii [1] (setting [13]) worked out at 80%; with Aphis gossypii [1] (setting [14]) it was 10%.
On to `COCCC1CCC2(CC1)NC(=O)C(c1c(C)cc(C)cc1C)=C2O` (centres unmarked) [Example I-1-a-17], for which the “Degree of destruction/% after 6 days” value in the test on Aphis gossypii [1] (setting [5]) came to 80%; with Aphis gossypii [1] (setting [6]), 50%; with Aphis gossypii [1] (setting [13]) it was 85%; in the test on Aphis gossypii [1] (setting [14]) it was 70%.
For the compound `COC1CCCC2(CC(O)=C(c3c(C)cc(C)cc3C)C2=O)C1` (centres unmarked) [Example I-6-a-2], the “Degree of destruction/% after 6 days” value is on record as 30% in the test with Aphis gossypii [2] (setting [9]), 15% with Aphis gossypii [2] (setting [10]), 40% in the test on Aphis gossypii [2] (setting [11]) and 0% in the test with Aphis gossypii [2] (setting [12]).

The values above are taken from patent US8247351B2, “Insecticidal compositions having improved effect” (Bayer Cropscience AG, priority 2005, dated 2012).
